Reference: the METLIN SMRT retention time set (Domingo-Almenara et al. 2019)

Assay: gradient 5% acetonitrile 3 min, to 50% in 2 min, to 85% in 15 min, held 3 min, 100 µL/min
Settings: column: Zorbax Extend-C18 2.1 x 50 mm; eluents: water / acetonitrile, 0.1% formic acid
How it was run: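 Pure standards were analyzed in mixtures of ~100 molecules using HPLC coupled to a quadrupole time-of-flight mass spectrometer, in both positive and negative ionization mode. Separation used a Zorbax Extend-C18 column (2.1 × 50 mm, 1.8 μm) at 100 μL/min, with water and acetonitrile each containing 0.1% formic acid. Dead and dwell volumes were 40 μL and 900 μL, and data were collected over 3 months. Retention time was read from computationally picked adduct peaks, each inspected manually.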

RP-LC retention time	SMILES
637 s	CC(=O)N[C@@H]1CN(C(=O)Cc2cccc3ccccc23)C[C@H]1CO
547 s	Cc1nc(-n2cccc2)sc1C(=O)NCCN(C)C
638 s	CCCNC(=O)C1CCN(c2ccc(SCC(=O)Nc3ccc(C(=O)OC)cc3)nn2)CC1
672 s	CCOC(=O)c1c(S(=O)(=O)N2CCC(C(=O)NC3CC3)CC2)c(C)n(C)c1C
838 s	CCn1c(=O)c(N2CCC(NC(=O)NCc3ccccc3)CC2)nc2ccccc21
672 s	Cc1ccn2cc(-c3ccc(NC(=O)C(C)Oc4ccccc4)cc3)nc2n1 (configuration not stated)
608 s	Cc1ccc(CNC(=O)C2(C)Cn3nc(C(=O)NCCN4CCCC4)cc3C(=O)N2C)cc1 (configuration not stated)
1140 s	COc1ccc(-c2csc(NC(=O)c3ccc(Cl)c(Cl)c3)n2)cc1
658 s	COCC(=O)Nc1ccc2c(c1)CN(C(=O)c1ccccc1)CC2
952 s	Cc1ccc(-c2cc3c4nnc(CCC(=O)NCc5ccccc5C(F)(F)F)n4ccn3n2)cc1C
668 s	COCCc1noc(COC2CCCN(C(=O)c3ccoc3)C2)n1 (configuration not stated)
658 s	Cc1cccc(-c2nnc(CC(=O)NC3CCCC3)o2)c1
701 s	CC(C)n1c(N2CCN(C(=O)c3ccc4nccnc4c3)CC2)cc(=O)n(C(C)C)c1=O
1260 s	Cc1ccc(-c2ncc3c(=O)n(Cc4ccc(F)cc4)c(=O)n(C)c3n2)cc1
806 s	COCCn1c(C2CCN(S(=O)(=O)c3ccc(Cl)cc3)C2)nc2cccnc21 (configuration not stated)
930 s	COc1ccc(S(=O)(=O)CCc2noc(C(=O)NCCc3ccc(SC)cc3)n2)cc1
968 s	CCSCCOC(=O)C1=C(C)NC2=C(C(=O)C(C(=O)OC)C(C)C2)C1c1cccc(OC)c1 (configuration not stated)
1130 s	N#Cc1c(N)nc(SCc2csc(-c3ccc(Cl)cc3)n2)c(C#N)c1-c1ccc(OCCO)cc1

RP-LC retention time	SMILES
905 s	COc1ccc(N2CC(c3nc(-c4cc(OC)c(OC)c(OC)c4)no3)CC2=O)cc1Cl (configuration not stated)
860 s	O=C(NCCCn1c(C(F)(F)F)nc2cccnc21)Nc1ccccc1Br
963 s	CCOc1ccc(CC(=O)Nc2nc(-c3cccs3)cs2)cc1
730 s	CCN1CCN(C(=O)CC2COc3ccc(Cl)cc3N2Cc2ccccc2)CC1 (configuration not stated)
612 s	CCCC(=O)Nc1ccc(S(=O)(=O)NCCn2ncccc2=O)cc1
787 s	COc1cccc(-c2noc(NC3CC3)n2)c1
716 s	Cc1ccc(C(=O)NCCc2nc3cccnc3n2CC(C)C)cc1
618 s	O=C(c1ccoc1)N1CCC(F)(C(=O)NCC2CC2)CC1
861 s	CCCN1C(=O)COc2ccc(-c3csc(NC(=O)CC)n3)cc21
877 s	CCS(=O)(=O)N1CC(c2nc(-c3ccc(F)cc3)no2)C2(CCOCC2)C1 (configuration not stated)
856 s	Cc1ccc(NC(=O)N2CCC(n3cnc4cc(Cl)ccc4c3=O)CC2)cc1
838 s	Cc1ccc(-n2c(N3CCCC(C(=O)NCCCOC(C)C)C3)nc3ccsc3c2=O)cc1 (configuration not stated)
605 s	COc1ncccc1C(=O)N1CCC(C(=O)Nc2nccs2)CC1
645 s	COc1ccc(NC(=O)c2ccc(-n3cnc(NC(=O)C4CC4)c3)cc2)cc1OC
606 s	O=C(c1cccnc1N1CCNC(c2ccccc2)C1)N1CCSCC1 (configuration not stated)
698 s	COc1ccc(-c2c(C(=O)N(C)Cc3ccco3)nc3ccccn23)cc1
649 s	CCN1CCCn2nc(C3CCN(C(=O)c4cccnc4SC)CC3)cc2C1=O
943 s	COc1cccc(-c2noc(Cc3nnc(-c4ccc(F)cc4)o3)n2)c1OC

SMILES	RP-LC retention time
CCN(CC)C(=O)N[C@@H]1C[C@@H]2c3cccc4[nH]cc(c34)C[C@H]2N(C)C1	684 s
